Data: PubChem BioAssay (NCI)
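Growth conditions: 96-well plates. Treatment: test compound, 48 hours, 5 concentrations. Analysis: linear interpolation between bracketing concentrations; unreached endpoints set to highest concentration. GI50 marks 50% less growth. The concentration for full growth arrest is given as TGI.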

Key:
Experiment in all cases: NCI tumour cell line growth inhibition, 48 h
MOLT-4 leukemia = system: MOLT-4 leukemia
TK-10 renal = system: TK-10 renal
HCT-15 colon = system: HCT-15 colon
A498 renal = system: A498 renal
HS 578T breast = system: HS 578T breast
SK-MEL-28 melanoma = system: SK-MEL-28 melanoma
UACC-62 melanoma = system: UACC-62 melanoma
NCI-H460 lung = system: NCI-H460 lung
OVCAR-3 ovarian = system: OVCAR-3 ovarian
EKVX NSCLC = system: EKVX NSCLC

Compound | GI50 (MOLT-4 leukemia) [µM] | TGI (MOLT-4 leukemia) [µM] | GI50 (TK-10 renal) [µM] | TGI (TK-10 renal) [µM] | GI50 (HCT-15 colon) [µM] | TGI (HCT-15 colon) [µM] | GI50 (A498 renal) [µM] | TGI (A498 renal) [µM] | GI50 (HS 578T breast) [µM] | TGI (HS 578T breast) [µM] | GI50 (SK-MEL-28 melanoma) [µM] | TGI (SK-MEL-28 melanoma) [µM] | GI50 (UACC-62 melanoma) [µM] | TGI (UACC-62 melanoma) [µM] | GI50 (NCI-H460 lung) [µM] | TGI (NCI-H460 lung) [µM] | GI50 (OVCAR-3 ovarian) [µM] | TGI (OVCAR-3 ovarian) [µM] | TGI (EKVX NSCLC) [µM] | GI50 (EKVX NSCLC) [µM]
CCOC(=O)Nc1nc2c(C)cccc2s1 | 38.1 | > 100 | 90.9 | > 100 | 44.3 | > 100 | 11.7 | 54.8 | 36.1 | > 100 | > 100 | > 100 | 36 | > 100 | 70.8 | > 100 | 41.8 | > 100 | – | –
CC(C)C(=O)/C=C/c1ccc(Cl)c(Cl)c1 | – | > 100 | – | 28.8 | – | – | – | 62.1 | – | – | – | 35.3 | – | 34.9 | – | 48 | – | 27.6 | 51.4 | –
Clc1ccc(Nc2ccnc(NCCCNc3ccnc4cc(Cl)ccc34)n2)cc1 | – | – | 1.94 | 3.41 | – | – | 1.29 | 2.66 | 1.73 | 3.8 | 1.64 | 3.07 | – | – | – | – | – | – | – | –
COC(=O)C1C(OCc2ccccc2)C2CCC1(OC)C=C2C (stereo not given) | – | 80.6 | – | > 100 | – | > 100 | – | > 100 | – | – | – | > 100 | – | > 100 | – | > 100 | – | > 100 | > 100 | –
COc1cc2c(c(OC)c1OC)-c1ccc(OC)c(=O)cc1[C@@H](N(C)C=O)CC2 | – | > 100 | – | > 100 | – | > 100 | – | 0.665 | – | – | – | > 100 | – | > 100 | – | – | – | 0.047 | > 100 | –
C1=Nc2ccccc2C=Nc2ccccc2C=Nc2ccccc2C=Nc2ccccc21.[Cl-].[Pt+2] | 14.1 | 49.3 | 45.7 | > 100 | 22.3 | 83.1 | 23.2 | 61.5 | – | – | 14.8 | 64.4 | 21.1 | 87.8 | 25.7 | > 100 | – | – | > 100 | 37.5
O=C(CC1C=CCS1(=O)=O)NCc1ccccc1 (stereo not given) | – | > 100 | – | > 100 | – | > 100 | – | – | – | > 100 | – | > 100 | – | > 100 | – | > 100 | – | > 100 | > 100 | –
COc1ccc(-c2c(N)[n+]([O-])c3ccccc3[n+]2[O-])cc1OC | – | > 100 | – | – | – | > 100 | – | > 100 | – | – | – | > 100 | – | – | – | > 100 | – | > 100 | > 100 | –
Cc1ccc2c(c1)CNc1ccc(C)cc1CN2 | – | > 100 | – | – | – | > 100 | – | – | – | – | – | – | – | > 100 | – | > 100 | – | > 100 | > 100 | –
COc1cc2c(cn1)[nH]c1ccccc12 | – | > 100 | – | > 100 | – | > 100 | – | – | – | – | – | > 100 | – | > 100 | – | > 100 | – | > 100 | > 100 | –
C=C1C[C@@]2(C)C(CC[C@]3(C)C2CC=C2C4CC(C)(C)C[C@@H](OC(=O)/C(C)=C\C)[C@]4(C(=O)O)CC[C@]23C)C(C)(C)C1=O (stereo not given in full) | 2.91 | 24.8 | 4.57 | 17.9 | 2.23 | 7.88 | – | – | 5.21 | 34.4 | 2.32 | 5.44 | 2.93 | 10.3 | 3.22 | 11 | 2.08 | 5 | 19 | 4.95
